Laboratory results from patent US20100120799A1, “PURINE DERIVATIVES AS IMMUNOMODULATORS” (SMITHKLINE BEECHAM CORPORATION, priority 2007, published 2010).
Several values for one entry are separate records, joined by “and”; a condition that tells them apart may be missing. Equal entries are not always repeated.

How the values were obtained:
[1] = system: HCV ET replicon cells (Huh-7, HCV Con1-ET construct); assay: Replicon assay: inhibition of Hepatitis C virus replication by supernatants from compound-stimulated human PBMC; type: cell-based; settings: Huh-7 HCV ET replicon, luciferase, 48 h incubation, read-out: mean EC50 (compound concentration giving a PBMC supernatant inhibiting HCV replication by 50%)
Description: Inhibition of Hepatitis C virus Replication by Supernatants from Compound-Stimulated Human Peripheral Blood Mononuclear Cells (PBMC).
An assay was established to measure the antiviral activity in supernatants from human PBMC which had been previously stimulated with compounds.
Activity assays were conducted using an Huh-7 cell line stably-transfected with a dicistronic replicon, comprising the HCV Con1-ET construct (Pietschmann et al., 2002 J. Virol. 2002 76(8):4008-21) and the firefly (Photinus pyralis) luciferase gene, obtained from ReBLikon GmbH, Germany.
1.5×10^4 HCV ET replicon cells per well were grown in 96-well plates overnight in 90 microlitres of cell culture medium. Ten microlitres of three-fold dilutions of PBMC supernatants generated above (stimulation of human donor blood-derived peripheral blood mononuclear cells (PBMC) with test compounds) were added to the ET cells. Following a 48-hour incubation, assay medium was removed and luciferase activity measured in the cell monolayers using the Steadylite assay system (Perkin Elmer). EC50 values were calculated as the compound concentration giving a PBMC supernatant which was able to inhibit HCV replication by 50% compared with a supernatant from unstimulated PBMC cultures.

[2] = system: Ovalbumin (OVA)-induced acute pulmonary inflammation; assay: Ovalbumin-induced acute pulmonary inflammation model; type: in vivo, BALB/c mice; settings: BAL on day 28
Description: Inhibition of Ovalbumin (OVA)—Induced Acute Pulmonary Inflammation. Female BALB/c mice (18-20 g) were inoculated on days 0 and 14, with 10 μg OVA adsorbed to 2 mg aluminium hydroxide in a volume of 0.2 ml phosphate buffered saline (PBS) via the intra-peritoneal route. On days 24-26, mice were intra-nasally challenged with 50 μl of either saline or OVA (formulated as above) under general anaesthesia. […] Doses were given once daily on days 23 to 27 with the initial dose 24 h prior to the first challenge. On the days of challenge, animals were dosed with compound or vehicle one hour after challenge. Animals therefore received a total of 5 doses. Dexamethasone was used as a positive control dosed at 10 mg/kg orally in the same vehicle once daily on days 24 to 27 with the initial dose 1 h prior to the first challenge. Animals therefore received a total of 4 doses. Animals were killed on day 28 (48 hours post last saline or OVA challenge) and bronchoalveolar lavage (BAL) was performed with 5×1 ml (0.1% bovine serum albumin, 10 mM EDTA in PBS) and pooled. Numbers of lymphocytes, macrophages, eosinophils and neutrophils in BAL were identified by light scatter flow cytometry and quantified.

[3] = 5 mg/kg orally once daily days 23 to 27, compared with saline treated controls
[4] = positive control, 10 mg/kg orally once daily days 24 to 27, 10 mg/kg

Compound	EC50 [1]	reduction of eosinophil counts in BAL [2, 3]	reduction of lymphocyte counts in BAL [2, 3]	reduction of neutrophil counts in BAL [2, 3]	reduction of eosinophil counts in BAL [2, 4]	reduction of lymphocyte counts in BAL [2, 4]	reduction of neutrophil counts in BAL [2, 4]
CCCCOc1nc(N)c2[nH]c(=O)n(CC3CCOCC3)c2n1 [Example 1, 6-Amino-2-butoxy-9-(tetrahydro-2H-pyran-4-ylmethyl)-7,9-dihydro-8H-purin-8-one]	43 nM	–	–	–	–	–	–
CCCCNc1nc(N)c2[nH]c(=O)n(CC3CCOCC3)c2n1 [Example 4, 6-Amino-2-butylamino-9-(tetrahydro-2H-pyran-4-ylmethyl)-7,9-dihydro-8H-purin-8-one]	1050 nM	72%	66%	50%	–	–	–
CCCCOc1nc(N)c2[nH]c(=O)n(CC3CCCOC3)c2n1 (centres unmarked) [Example 12, 6-Amino-2-butoxy-9-(tetrahydro-2H-pyran-3-ylmethyl)-7,9-dihydro-8H-purin-8-one]	–	67%	68%	58%	–	–	–
C[C@@H]1C[C@H]2[C@@H]3CCC4=CC(=O)C=C[C@]4(C)[C@@]3(F)[C@@H](O)C[C@]2(C)[C@@]1(O)C(=O)CO [dexamethasone, Dexamethasone, reference compound]	–	–	–	–	92% and 86%	87% and 86%	68% and 65%
